PubChem BioAssay (NCI)
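Exposure lasted 48 hours, with cells grown in 96-well plates and compounds tested at five concentrations. The concentration for full growth arrest is given as TGI.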

Key:
Test in all cases: NCI anticancer screen, dose series, 48 h
ACHN renal = test system: ACHN renal
IGROV1 ovarian = test system: IGROV1 ovarian
K-562 leukemia = test system: K-562 leukemia
M14 melanoma = test system: M14 melanoma
MOLT-4 leukemia = test system: MOLT-4 leukemia
NCI-H23 lung = test system: NCI-H23 lung
OVCAR-5 ovarian = test system: OVCAR-5 ovarian
SK-MEL-5 melanoma = test system: SK-MEL-5 melanoma
SNB-19 CNS = test system: SNB-19 CNS
U251 CNS = test system: U251 CNS
UACC-62 melanoma = test system: UACC-62 melanoma
A498 renal = test system: A498 renal
MDA-MB-435 = test system: MDA-MB-435

Measured: TGI

COc1ccc2c(c1)[n+]([O-])c(/C(C)=N/NC(=O)c1ccccc1O)c(C)[n+]2[O-]
not listed: A498 renal | MDA-MB-435
> 100 µM: all other assays above

CCN(CC)Cc1cc(Nc2ccnc3ccc4nn(C)nc4c23)ccc1O
99 µM: IGROV1 ovarian
27.9 µM: M14 melanoma
> 100 µM: K-562 leukemia | MOLT-4 leukemia | SNB-19 CNS
29.9 µM: NCI-H23 lung | SK-MEL-5 melanoma
68.3 µM: ACHN renal
45.5 µM: U251 CNS
35.7 µM: OVCAR-5 ovarian
27.4 µM: UACC-62 melanoma

Cc1nc2c3c(ccc2[nH]c1=O)C(=O)c1ccccc1C3=O
not listed: MOLT-4 leukemia | MDA-MB-435
> 100 µM: all other assays above

CC(C)c1ccc(/C=C/c2cc(C(=O)NNC(=O)NC3CCCCC3)nc(=S)[nH]2)cc1
not listed: K-562 leukemia | MOLT-4 leukemia | MDA-MB-435
> 100 µM: all other assays above

O=[N+]([O-])C=C1c2ccccc2-c2ccccc21
25.3 µM: M14 melanoma
6.34 µM: K-562 leukemia
51.8 µM: SNB-19 CNS
34.6 µM: A498 renal
53.5 µM: MOLT-4 leukemia
31.4 µM: OVCAR-5 ovarian
30.4 µM: NCI-H23 lung
30.6 µM: ACHN renal

CCCCC1(O)CC2CC1C(C)C2(C)C (centres undefined)
not listed: ACHN renal | A498 renal
> 100 µM: all other assays above

O=C(O)c1ccc([C@@H]2C(=O)N(O)[C@@H]3C=CC[C@@H]32)cc1
not listed: ACHN renal | OVCAR-5 ovarian | U251 CNS | A498 renal | MDA-MB-435
> 100 µM: all other assays above

CC(C)C(Sc1nc(-c2ccccc2)c(-c2ccccc2)[nH]1)c1n[nH]c(=S)n1-c1ccccc1 (centres undefined)
79.5 µM: ACHN renal
38.2 µM: M14 melanoma
77.9 µM: NCI-H23 lung
56.8 µM: SNB-19 CNS
25.3 µM: UACC-62 melanoma
31.5 µM: SK-MEL-5 melanoma
61.3 µM: U251 CNS
> 100 µM: A498 renal
69.2 µM: IGROV1 ovarian
95 µM: OVCAR-5 ovarian
47.5 µM: MOLT-4 leukemia

COC(=O)C(c1ccc(OC)cc1)N1C(=O)[C@@H](NC(=O)c2ccccc2)[C@H]1[C@@H](C)O (some centres undefined)
not listed: OVCAR-5 ovarian | A498 renal | MDA-MB-435
> 100 µM: all other assays above

O=C(O)c1c2c(cc3c(=O)cc(-c4ccccc4)oc13)CCCC2
not listed: MDA-MB-435
> 100 µM: all other assays above

CCOC(=O)N/N=C(\CC)OCC
not listed: NCI-H23 lung | U251 CNS | A498 renal | MDA-MB-435
> 100 µM: all other assays above

Cc1ccc(-c2nnc3s/c(=C\c4ccc(N(C)C)cc4)c(=O)n23)cc1
not listed: K-562 leukemia | MDA-MB-435
> 100 µM: all other assays above

COc1ccccc1NC(=O)CC(=O)N1N=C(c2ccccc2)C(N=Nc2ccc(Cl)cc2)C1=O (centres undefined)
89.7 µM: UACC-62 melanoma
35.2 µM: A498 renal
47.3 µM: ACHN renal
42 µM: SK-MEL-5 melanoma
not listed: MDA-MB-435
> 100 µM: all other assays above

COc1ccc(/C=C/C(=O)c2sc(-c3cccnc3)nc2C)cc1
99.5 µM: MOLT-4 leukemia
not listed: ACHN renal | M14 melanoma | SNB-19 CNS | MDA-MB-435
> 100 µM: all other assays above

Cc1ccc(C(=O)N/N=C(\N=Nc2ccccc2Cl)c2ccc(N(C)C)cc2)cc1
46.1 µM: ACHN renal
84.5 µM: SNB-19 CNS
17.8 µM: UACC-62 melanoma
29.6 µM: MDA-MB-435
not listed: A498 renal
> 100 µM: all other assays above

CCOc1cccc(-c2cc(=O)c3cc4c(cc3[nH]2)OCO4)c1
> 62.3 µM: ACHN renal
0.0528 µM: MDA-MB-435
3.44 µM: U251 CNS
> 37.6 µM: M14 melanoma
> 27.1 µM: SNB-19 CNS
21.1 µM: UACC-62 melanoma
not listed: K-562 leukemia
> 100 µM: all other assays above

COc1cc(CNc2cnc3ccc(N)cc3n2)cc(OC)c1OC
not listed: MDA-MB-435
> 100 µM: all other assays above

C#CCOCn1cc(C)c(=O)[nH]c1=O
not listed: MDA-MB-435
> 100 µM: all other assays above

CC(=O)NNc1nc(C)c(C(=O)/C=C/c2ccc(Cl)c(Cl)c2)s1
not listed: M14 melanoma | MDA-MB-435
> 100 µM: all other assays above

NC(N)=NS(=O)(=O)c1ccc(NC(=O)c2cccc3c(N)c4ccccc4nc23)cc1
not listed: MDA-MB-435
> 100 µM: all other assays above

O=c1[nH]c2c(c(=O)[nH]1)C(c1ccc([N+](=O)[O-])cc1)c1c([nH]c(=O)[nH]c1=O)O2
not listed: K-562 leukemia | MOLT-4 leukemia
> 100 µM: all other assays above

COc1ccc(/C=C2\CCC(CCN3CCOCC3)C2=O)cc1 (centres undefined)
not listed: U251 CNS | MDA-MB-435
> 100 µM: all other assays above

COC(=O)C(=O)C(/C(=N/N)C(=O)Nc1ccccc1C(N)=O)c1nc2ccc([N+](=O)[O-])cc2[nH]c1=O (centres undefined)
not listed: MDA-MB-435
> 100 µM: all other assays above

CN(C)C(=NC#N)N(Cc1ccccc1)Cc1ccccc1
50.9 µM: K-562 leukemia
not listed: MOLT-4 leukemia | MDA-MB-435
> 100 µM: all other assays above

O=C(O)CCN(CCCN(CCC(=O)O)CCC(=O)O)CCC(=O)O
not listed: SNB-19 CNS | MDA-MB-435
> 100 µM: all other assays above

C=CC1(c2ccc3ccccc3c2)OCC(CC)O1 (centres undefined)
87.9 µM: MOLT-4 leukemia
96.2 µM: NCI-H23 lung
85.1 µM: K-562 leukemia
88.3 µM: UACC-62 melanoma
not listed: A498 renal
> 100 µM: all other assays above

CCCCCCCCCCOC(=O)NCCC
43.6 µM: MOLT-4 leukemia
80.6 µM: U251 CNS
93.9 µM: OVCAR-5 ovarian
52.9 µM: SK-MEL-5 melanoma
not listed: MDA-MB-435
> 100 µM: all other assays above

CCOC(=O)C1SC(=Nc2ccc(Cl)cc2Cl)N=C1C (centres undefined)
not listed: MOLT-4 leukemia | MDA-MB-435
> 100 µM: all other assays above

CN(/N=C\c1ccnc2ccccc12)c1ccccc1
84.9 µM: U251 CNS
> 100 µM: IGROV1 ovarian | MOLT-4 leukemia | SNB-19 CNS
51.4 µM: K-562 leukemia
37.2 µM: UACC-62 melanoma
48.6 µM: NCI-H23 lung
95.8 µM: ACHN renal
31.2 µM: SK-MEL-5 melanoma
54.6 µM: A498 renal
45.6 µM: OVCAR-5 ovarian
38.2 µM: M14 melanoma

Cc1ccccc1Nc1nc(NNC(=O)Cc2ccccc2)nc(NNC(=O)c2ccncc2)n1
> 10 µM: IGROV1 ovarian | K-562 leukemia | M14 melanoma | MOLT-4 leukemia | U251 CNS | UACC-62 melanoma

CC(=O)n1[nH]c(=O)n(-c2ccccc2)c1=O
not listed: A498 renal
> 100 µM: all other assays above

Cc1cc(S(=O)(=O)NC(=NCCc2ccccc2)NN)c(S)cc1Cl
37.9 µM: SK-MEL-5 melanoma
63.9 µM: MOLT-4 leukemia
32.4 µM: U251 CNS
36.7 µM: SNB-19 CNS
36.8 µM: OVCAR-5 ovarian
91.5 µM: M14 melanoma
> 100 µM: IGROV1 ovarian | K-562 leukemia
40 µM: UACC-62 melanoma
61.1 µM: MDA-MB-435

O=C1C(c2ccccc2)=C(c2ccccc2)C(c2ccc(Sc3ccc(C4=C(c5ccccc5)C(=O)C(c5ccccc5)=C4c4ccccc4)cc3)cc2)=C1c1ccccc1
not listed: ACHN renal | MDA-MB-435
> 100 µM: all other assays above

COc1ccc2c(c1OC)C(=O)N/C2=C\c1c(CCN(C)C)cc2c(c1OC)OCO2
not listed: UACC-62 melanoma | A498 renal
> 100 µM: all other assays above

CCOC(=O)c1sc2nc1CSc1sc(=S)sc1SCc1nc(sc1C(=O)OCC)-c1nc(c(C(=O)OCC)s1)CSc1sc(=S)sc1SCc1nc-2sc1C(=O)OCC
not listed: M14 melanoma | A498 renal
> 10 µM: all other assays above

O=C(Cc1nc2ccc([N+](=O)[O-])cc2[nH]c1=O)C(=O)Nc1ccccc1[N+](=O)[O-]
not listed: U251 CNS | MDA-MB-435
> 100 µM: all other assays above

C/C(=N/O)c1sc(-c2nc(C)c(/C(C)=N\O)s2)nc1C
not listed: OVCAR-5 ovarian | MDA-MB-435
> 100 µM: all other assays above

c1ccc2c(CNCCCCCCCCNCc3cccc4ccccc34)cccc2c1
3.73 µM: K-562 leukemia
28.4 µM: A498 renal
3.13 µM: U251 CNS
16.2 µM: IGROV1 ovarian
4.14 µM: OVCAR-5 ovarian
3.18 µM: M14 melanoma
14.8 µM: NCI-H23 lung
3.32 µM: SK-MEL-5 melanoma
8.36 µM: ACHN renal
9.64 µM: MOLT-4 leukemia
3.24 µM: UACC-62 melanoma

CC1=CC(=O)N(n2c(-c3ccccc3)n[nH]c2=O)C1=O
not listed: A498 renal
> 100 µM: all other assays above
